This passage reports Activity results from ChEMBL document CHEMBL4196111, “ROR(GMMA)T Modulating Activity for the Treatment of Cancers” (ACS Med Chem Lett, 2018).

The target in this experiment is T1, Nuclear receptor ROR-gamma (Mus musculus) (UniProt P51450).
T1 sequence (whole entry): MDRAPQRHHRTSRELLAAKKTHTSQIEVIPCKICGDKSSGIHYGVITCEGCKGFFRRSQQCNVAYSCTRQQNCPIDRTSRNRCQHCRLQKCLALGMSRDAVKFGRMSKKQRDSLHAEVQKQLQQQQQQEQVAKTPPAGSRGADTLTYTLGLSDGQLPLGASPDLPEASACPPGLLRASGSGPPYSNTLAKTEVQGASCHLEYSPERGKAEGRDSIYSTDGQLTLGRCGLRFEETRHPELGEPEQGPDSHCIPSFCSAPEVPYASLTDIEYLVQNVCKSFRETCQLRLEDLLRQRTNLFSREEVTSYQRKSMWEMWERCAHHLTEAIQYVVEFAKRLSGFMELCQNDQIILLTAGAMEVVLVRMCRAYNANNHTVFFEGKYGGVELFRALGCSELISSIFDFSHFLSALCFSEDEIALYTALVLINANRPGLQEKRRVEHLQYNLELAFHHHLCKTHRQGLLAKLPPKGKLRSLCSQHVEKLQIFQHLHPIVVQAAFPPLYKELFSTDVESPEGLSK
The experiment in a line: Modulation of RORgammat in mouse Th17 cells assessed as […] IL17A production at 3 uM relative to control. The experiment is classed as cell-based.
Take `CS(=O)(=O)c1ccc(CNC(=O)c2ccc3c(n2)OCCN3c2cc(C3CC3)nc(C3CC3)c2)c(F)c1`: the Activity is 324%.
In the case of `CS(=O)(=O)c1ccc(CNC(=O)c2ccc3c(n2)CCCN3c2cc(C3CC3)nc(C3CC3)c2)nc1` it was 452%; in that of `CS(=O)(=O)c1ccc(CNC(=O)c2ccc3c(n2)OCCN3c2cc(C3CC3)nc(C3CC3)c2)cc1`, 373%; in that of `CS(=O)(=O)c1ccc(CNC(=O)c2ccc3c(c2)OCCC3c2cc(C3CC3)nc(C3CC3)c2)nc1` (stereo not drawn), 443%.
On to `CCS(=O)(=O)c1ccc(CNC(=O)c2ccc3c(n2)CCCN3c2cc(C3CC3)nc(C3CC3)c2)nc1`, for which the Activity came out at 533%.
In the case of `CS(=O)(=O)c1ccc(CNC(=O)c2ccc3c(n2)CCCN3c2cc(C3CC3)nc(C3CC3)c2)c(C(N)=O)c1` it was 483%.
Turning to `CS(=O)(=O)c1ccc(C(CO)NC(=O)c2ccc3c(n2)CCCN3c2cc(C3CC3)nc(C3CC3)c2)cc1` (stereo not drawn), the Activity came out at 533%.
In the case of `CCOC(=O)c1cc(S(=O)(=O)CC)ccc1CNC(=O)c1ccc2c(n1)CCCN2c1cc(C2CC2)nc(C2CC2)c1` it was 572%.
